Like-named read-outs stand apart in the source and are kept apart here.
Legend:
[1] = system: HCC827 (EGFR Del19); assay: Proliferation (CellTiter-Glo), HCC827; type: cell-based, human; settings: HCC827, EGFR Del19, 72 hours, read-out: GI50
Description: (§2) The human cancer cell lines A549, A431, H3255, H1975, PC-9, HCC827, H23, H460, A549, H358 and H2122 cells were purchased from the American Type Culture Collection (ATCC) (Manassas, VA, USA). […] A549 and A431 were cultured in DMEM media (Corning, USA) with 10% FBS and supplemented with 2% L-glutamine and 1% pen/strep. H3255 was cultured in BEGM media (LONZA, USA) with 10% FBS and supplemented with 2% L-glutamine and 1% pen/strep.
(§3) Cells were grown in 96-well culture plates (2500–3000/well). For adherent cell lines, compounds of various concentrations were added into the plates after cells were cultured for 12 hours. Cell proliferation was determined after treatment with compounds for 72 hours. Cell viability was measured using the CellTiter–Glo assay (Promega, USA), according to the manufacturer's instructions, and luminescence was measured in a multi-label reader (Envision, PerkinElmer, USA). Data were normalized to control groups (DMSO) and represented by the mean of three independent measurements with standard error <20%. GI50 values were calculated using Prism 5.0 (GraphPad Software, San Diego, CA).

[2] = system: H1975 (EGFR L858R/T790M); assay: Proliferation (CellTiter-Glo), H1975; type: cell-based, human; settings: H1975, EGFR L858R/T790M, 72 hours, read-out: GI50
Description: as §2, §3

[3] = system: A549 (EGFR wt); assay: Proliferation (CellTiter-Glo), A549; type: cell-based, human; settings: A549, EGFR wt, 72 hours, read-out: GI50
Description: as §2, §3

[4] = system: H23 (EGFR wt); assay: Proliferation (CellTiter-Glo), H23; type: cell-based, human; settings: H23, EGFR wt, 72 hours, read-out: GI50
Description: as §2, §3

[5] = system: PC-9 (EGFR Del19); assay: Proliferation (CellTiter-Glo), PC-9; type: cell-based, human; settings: PC-9, EGFR Del19, 72 hours, read-out: GI50
Description: as §2, §3

[6] = system: H358 (EGFR wt); assay: Proliferation (CellTiter-Glo), H358; type: cell-based, human; settings: H358, EGFR wt, 72 hours, read-out: GI50
Description: as §2, §3

[7] = system: H3255 (EGFR L858R); assay: Proliferation (CellTiter-Glo), H3255; type: cell-based, human; settings: H3255, EGFR L858R, 72 hours, read-out: GI50
Description: as §2, §3

[8] = system: H2122 (EGFR wt); assay: Proliferation (CellTiter-Glo), H2122; type: cell-based, human; settings: H2122, EGFR wt, 72 hours, read-out: GI50
Description: as §2, §3

[9] = system: A431 (EGFR wt); assay: Proliferation (CellTiter-Glo), A431; type: cell-based, human; settings: A431, EGFR wt, 72 hours, read-out: GI50
Description: as §2, §3

[10] = system: H460 (EGFR wt); assay: Proliferation (CellTiter-Glo), H460; type: cell-based, human; settings: H460, EGFR wt, 72 hours, read-out: GI50
Description: as §2, §3

[11] = system: H1975 cells; assay: cells; settings: Homo sapiens, NCI-H1975, read-out: Relative activity (%)
Description: as §3

[12] = system: H1975 cells; settings: DMSO = 100
Description: as §3

[13] = system: H460 cells; assay: Cell cycle analysis (FACS), H460; type: cell-based, human; settings: H460, 48h
Description: (§4) The cells were fixed in 70% cold ethanol and incubated at −20°C overnight then stained with PI/RNase staining buffer (BD Pharmingen). Flow cytometry was performed using a FACS Calibur (BD), and results were analyzed by ModFit software.

[14] = system: H1975 EGFR (L858R/T790M); assay: Colony formation assay, H1975; type: cell-based, human; settings: H1975, 10 days, read-out: EC50 colony formation
Description: (§5) The clonogenic activity of the cells was determined by colony forming assays. Every six conditions of drugs were analyzed (10 μM, 1 μM, 0.1 μM, 0.01 μM, 0.001 μM, DMSO). The cells (H1975, PC-9, HCC827, H3255) were seeded at 600 cells/well in 2 ml medium in 6-well plates. Cells were maintained in a humidified 5% CO2 incubator at 37°C for 10 days without changing medium. […] The total number of colonies exceeding 50 cells per colony was counted and data were given as percentage with respect to the controls.

[15] = system: H1975 cells; assay: Cell cycle analysis (FACS), H1975; type: cell-based, human
Description: as §4

[16] = system: PC-9 EGFR del 19; assay: Colony formation assay, PC-9; type: cell-based, human; settings: PC-9, 10 days, read-out: EC50 colony formation
Description: as §5

[17] = system: H3255 EGFR L858R; assay: Colony formation assay, H3255; type: cell-based, human; settings: H3255, 10 days, read-out: EC50 colony formation
Description: as §5

[18] = system: PC-9 xenograft; assay: PC-9 xenograft mouse model; type: in vivo, Nude (Nu/Nu) mice
Description: (§1) Tumor diameter was measured 3 times weekly. Tumor volumes (V) were calculated by the equation (V = length × width × width/2). ALL experiments and procedures followed the guidelines of the Institutional Animal Care and Use Committees of National Institue of Biological Sciences, Beijing.

[19] = system: H3255 cells; assay: Cell cycle analysis (FACS), H3255; type: cell-based, human; settings: H3255, 24h
Description: as §4

[20] = system: H1975 xenograft; assay: H1975 xenograft mouse model; type: in vivo, Nude (Nu/Nu) mice
Description: as §1

[21] = system: PC-9 cells; assay: Cell cycle analysis (FACS), PC-9; type: cell-based, human; settings: PC-9, 24h
Description: as §4

[22] = system: HCC827 cells; assay: Cell cycle analysis (FACS), HCC827; type: cell-based, human; settings: HCC827, 24 h
Description: as §4

[23] = system: HCC827 EGFR Del 19; assay: Colony formation assay, HCC827; type: cell-based, human; settings: HCC827, 10 days, read-out: EC50 colony formation
Description: as §5

[24] = system: EGFR Y1068 in PC-9, HCC827, and H3255; assay: EGFR Y1068 auto-phosphorylation in EGFR primary mutant cell lines; type: cell-based, human; settings: range over PC-9, HCC827, and H3255
Description: Antibodies were used at 1:1000.
(§6) Cells were then washed with PBS and lysed in cell lysis buffer.

[25] = system: Akt Thr308 and Ser473 phosphorylation in H1975; assay: Signaling pathway immunoblotting, H1975; type: cell-based, human; settings: H1975, 4 hours
Description: Antibodies were used at 1:1000.
as §6

[26] = system: PI3K kinase; assay: PI3K kinases ADP-Glo assay; type: biochemical; settings: Fig. S8

CCC(=O)N1CCC[C@@H](n2nc(-c3ccc(Oc4ccccc4)cc3)c3c(N)ncnc32)C1 [PCI-R]
GI50 [1]: > 10000 nM | GI50 [2]: > 10000 nM | GI50 [3]: > 10000 nM | GI50 [4]: > 10000 nM | GI50 [5]: > 10000 nM | GI50 [6]: > 10000 nM | GI50 [7]: > 10000 nM | GI50 [8]: > 10000 nM | GI50 [9]: > 10000 nM | GI50 [10]: > 10000 nM

CC(=O)Nc1cccc(-n2c(=O)n(C3CC3)c(=O)c3c(Nc4ccc(I)cc4F)n(C)c(=O)c(C)c32)c1 [Trametinib]
activity at 1.1 µM [11]: 52.2% | GI50 ([2]; Homo sapiens, NCI-H1975): ~1100 nM | H1975 cell lines growth ([12]; single agent 0.014 μM): 77.33 | H1975 cell lines growth ([12]; single agent 0.04 μM): 79.50 | H1975 cell lines growth ([12]; single agent 0.37 μM): 80.79 | H1975 cell lines growth ([12]; single agent 1.1 μM): 77.20 | H1975 cell lines growth ([12]; single agent 10 μM): 20.59

C=CC(=O)Nc1cccc(Oc2nc(Nc3ccc(N4CCN(C)CC4)cc3OC)ncc2Cl)c1 [WZ-4002, WZ4002]
%G0-G1 ([13]; 0.3 μM): 71.39% | %G2-M ([13]; 0.3 μM): 5.15% | GI50 ([1]; Homo sapiens): 19 nM | GI50 ([2]; Homo sapiens, NCI-H1975): 300 to 1000 nM | GI50 ([3]; Homo sapiens): > 10000 nM | EC50 [14]: 12 nM | EC50 ([14]; Homo sapiens, NCI-H1975, 240 h): 12.2 nM | GI50 ([4]; Homo sapiens): > 10000 nM | GI50 ([5]; Homo sapiens): 44 nM | GI50 ([6]; Homo sapiens, NCI-H358): > 10000 nM | %G0-G1 ([15]; H1975, 12h, 0.3 μM): 70.4% | %G2-M ([15]; H1975, 12h, 0.3 μM): 10.17% | %G0-G1 ([15]; H1975, 24h, 0.3 μM): 80.35% | %G2-M ([15]; H1975, 24h, 0.3 μM): 7.63% | %G0-G1 ([15]; H1975, 48h, 0.3 μM): 94.64% | %G2-M ([15]; H1975, 48h, 0.3 μM): 0.95% | GI50 ([7]; Homo sapiens, NCI-H3255): 120 nM | EC50 ([16]; Homo sapiens, 240 h): 11.1 nM | EC50 [16]: 11 nM | EC50 [17]: 89 nM | EC50 ([17]; Homo sapiens, NCI-H3255, 240 h): 89.1 nM | anti-tumor activity (tumor growth) ([18]; PC-9 xenograft, 25 mg/kg/day QD oral gavage): almost completely suppressed the tumor growth | GI50 ([8]; Homo sapiens, NCI-H2122): 4500 nM | GI50 ([9]; Homo sapiens, A-431): 1000 nM | GI50 ([10]; Homo sapiens, NCI-H460): 4800 nM | %G0-G1 ([19]; 0.3 μM): 81.96% | %G2-M ([19]; 0.3 μM): 9.90% | anti-tumor activity (tumor growth) ([20]; 25 mg/kg/day QD oral gavage): almost completely suppressed the tumor growth | %G0-G1 ([21]; 0.3 μM): 87.95% | %G2-M ([21]; 0.3 μM): 6.24% | %G0-G1 ([22]; 0.3 μM): 79.74% | %G2-M ([22]; 0.3 μM): 5.62% | EC50 [23]: 10 nM | EC50 ([23]; Homo sapiens, HCC827, 240 h): 9.65 nM

C=CC(=O)N1CCC[C@@H](n2nc(-c3ccc(Oc4ccccc4)cc3)c3c(N)ncnc32)C1 [ibrutinib, Ibrutinib]
%G0-G1 ([13]; 0.3 μM): 69.88% | %G2-M ([13]; 0.3 μM): 5.02% | %G0-G1 ([13]; 3 μM): 70.49% | %G2-M ([13]; 3 μM): 5.09% | GI50 ([1]; Homo sapiens): 63 nM | activity at 1.1 µM [11]: 52.3% | EC50 [24]: 23 to 58 nM | GI50 ([2]; Homo sapiens, NCI-H1975): 1200 nM | GI50 ([3]; Homo sapiens): > 10000 nM | GI50 ([4]; Homo sapiens): > 10000 nM | phosphorylation of Akt Thr308 and Ser473 [25]: significantly affected the phosphorylation of Akt Thr308 and Ser473 | GI50 ([5]; Homo sapiens): 50 nM | GI50 ([6]; Homo sapiens, NCI-H358): > 10000 nM | %G0-G1 ([15]; H1975, 12h, 0.3 μM): 69.44% | %G2-M ([15]; H1975, 12h, 0.3 μM): 10.92% | %G0-G1 ([15]; H1975, 12h, 3 μM): 74.28% | %G0-G1 ([15]; H1975, 24h, 0.3 μM): 81.96% | %G2-M ([15]; H1975, 24h, 0.3 μM): 6.76% | %G0-G1 ([15]; H1975, 24h, 3 μM): 86.20% | %G2-M ([15]; H1975, 24h, 3 μM): 4.83% | %G0-G1 ([15]; H1975, 48h, 0.3 μM): 92.06% | %G2-M ([15]; H1975, 48h, 0.3 μM): 2.43% | %G0-G1 ([15]; H1975, 48h, 3 μM): 93.79% | %G2-M ([15]; H1975, 48h, 3 μM): 1.31% | GI50 ([7]; Homo sapiens, NCI-H3255): 110 nM | enzymatic activity against PI3K kinase [26]: did not have apparent enzymatic activity | anti-tumor activity (tumor progression) ([18]; PC-9 xenograft, 25, 50, 100 mg/Kg BID oral gavage, 22 days): tumor progression slow down efficacy | GI50 ([8]; Homo sapiens, NCI-H2122): > 10000 nM | GI50 ([9]; Homo sapiens, A-431): > 10000 nM | GI50 ([10]; Homo sapiens, NCI-H460): > 10000 nM | %G0-G1 ([19]; 0.3 μM): 82.82% | %G2-M ([19]; 0.3 μM): 9.73% | %G0-G1 ([19]; 3 μM): 89.05% | %G2-M ([19]; 3 μM): 5.24% | anti-tumor activity (tumor progression) ([20]; 50 mg/kg BID oral gavage, 23-day): slowed down tumor progression | anti-tumor activity, higher dosage versus 50 mg/kg BID ([20]; 100 mg/Kg BID): did not improve efficacy | %G0-G1 ([21]; 0.3 μM): 81.91% | %G2-M ([21]; 0.3 μM): 10.77% | %G0-G1 ([21]; 3 μM): 84.9% | %G2-M ([21]; 3 μM): 8.54% | %G0-G1 ([22]; 0.3 μM): 78.26% | %G2-M ([22]; 0.3 μM): 6.86% | %G0-G1 ([22]; 3 μM): 80.37% | %G2-M ([22]; 3 μM): 5.91% | H1975 cell lines growth ([12]; single agent 0.37 μM): 43.77 | H1975 cell lines growth ([12]; single agent 1.1 μM): 34.56

Reference: publication PMC4741607 (Oncotarget, 2015)
